≈ marks a conversion by molar mass, not a printed value.
How the values were obtained:
bacterial inoculum [1] = assay: Neutralization of biocides with monoethanolamine; assay type: cell-based; conditions: for Growth, Neutralization of Biocides with MEA: minimal media:FT diesel 10:1; for onset of microbial growth (delayed from 3 days): no MEA
Protocol: In all experiments, a 10:1 ratio of minimal media to Fischer-Tropsch diesel fuel were prepared and evaluated in 250 ml flasks.
In addition to these experiments, several controls were run without Glutaraldehyde as follows: […]

bacterial inoculum [2] = assay: Evaluation of biocides: inhibition of growth on FT diesel and ALAD diesel; assay type: cell-based, alkane degrading organisms; as to Growth, Test Results on ALAD Diesel Fuel: key: −: No Growth; +: Growth (White Unless Otherwise Indicated); as to Growth, Test Results on Fischer-Tropsch Diesel Fuel: key: −: No Growth; +: Growth (White Unless Otherwise Indicated)
Protocol: The ability of biocides to inhibit growth on a FT diesel and a low aromatics diesel fuel from Example 1 was investigated.
Test Conditions: 90 ml of growth media and 10 ml of either FT diesel or low sulfur (ALAD) diesel was added to 250 ml flasks. […] In addition to the 2 alkynes, glutaraldehyde (glutaric dialdehyde 50%), was tested. The following summarizes the test conditions:
100 ppm inhibitor (on a total test volume basis or 1000 ppm in diesel)
1% inhibitor (on a total test volume basis or 10% in diesel).
After inoculation, the flasks were place on a shaker-table (135 rpm) at room temperature and observed daily.

[3] = system: Larval Sheepshead Minnow (Cyprinodon variegatus); assay: in vivo; conditions: Cyprinodon variegatus (sheepshead minnow), 96 h
Protocol: (§1) […]. EPA/600/4-90/027F Washington, D.C.) conducted at Pacific Eco-Risk Laboratories, Martinez, Calif.
(§2) LOEC is the Lowest Observable Effect Concentration and is defined as the minimum concentration where mortality is observed for the test species. […] LC-50, the concentration that will cause mortality of 50% of the organisms tested within 96 h, is a calculated value based on all observations.
(§3) The solutions were mixed for 48 hours prior to the start of the bioassays. The solutions were diluted to perform bioassays at starting glutaraldehyde concentrations of 100, 50, 37.5, 25, and 10.5 mg/L. The results are summarized in Table X.

in vivo = conditions: Cyprinodon variegatus (sheepshead minnow, larval)
Protocol: as §1, §2, §3

With `O=CCCCC=O` [G, glutaraldehyde] the “Growth, Neutralization of Biocides with MEA” value (from here on “Growth, Neutralization”) (bacterial inoculum [1]; 1 ppm G, Time 0 days) was “−”, the “Growth, Neutralization” value (bacterial inoculum [1]; 1 ppm G, Time 1 days) was “−” and the “Growth, Neutralization” value (bacterial inoculum [1]; 1 ppm G, Time 2 days) was “−”. For the same compound, the “Growth, Neutralization” value (bacterial inoculum [1]; 1 ppm G, Time 3 days) was “−”, the “Growth, Neutralization” value (bacterial inoculum [1]; 1 ppm G, Time 7 days) was “−” and the “Growth, Neutralization” value (bacterial inoculum [1]; 1 ppm G, Time 9 days) was “+”. For the same compound, the “Growth, Neutralization” value (bacterial inoculum [1]; 1 ppm G, Time 14 days) was “+”, the “onset of microbial growth (delayed from 3 days)” value (bacterial inoculum [1]; 1 ppm of glutaraldehyde) was 9 days and the “Growth, Neutralization” value (bacterial inoculum [1]; 10 ppm G, Time 0 days) was “−”. The “Growth, Neutralization” value (bacterial inoculum [1]; 10 ppm G, Time 1 days) was “−”, the “Growth, Neutralization” value (bacterial inoculum [1]; 10 ppm G, Time 2 days) was “−” and the “Growth, Neutralization” value (bacterial inoculum [1]; 10 ppm G, Time 3 days) was “−”. For the same compound, the “Growth, Neutralization” value (bacterial inoculum [1]; 10 ppm G, Time 7 days) was “−”, the “Growth, Neutralization” value (bacterial inoculum [1]; 10 ppm G, Time 9 days) was “−” and the “Growth, Neutralization” value (bacterial inoculum [1]; 10 ppm G, Time 14 days) was “−”. The “onset of microbial growth (delayed from 3 days)” value (bacterial inoculum [1]; 10 ppm of glutaraldehyde) was “more than 14 days”, the “Growth, Neutralization” value (bacterial inoculum [1]; 100 ppm G, Time 0 days) was “−” and the “Growth, Neutralization” value (bacterial inoculum [1]; 100 ppm G, Time 1 days) was “−”. The “Growth, Neutralization” value (bacterial inoculum [1]; 100 ppm G, Time 2 days) was “−”, the “Growth, Neutralization” value (bacterial inoculum [1]; 100 ppm G, Time 3 days) was “−” and the “Growth, Neutralization” value (bacterial inoculum [1]; 100 ppm G, Time 7 days) was “−”. The “Growth, Neutralization” value (bacterial inoculum [1]; 100 ppm G, Time 9 days) was “−”, the “Growth, Neutralization” value (bacterial inoculum [1]; 100 ppm G, Time 14 days) was “−” and the “effectiveness as biocide (inhibits microbial growth)” value (bacterial inoculum [2]; ALAD diesel fuel) was “effective at a lower concentration”. The “Growth, Test Results on Fischer-Tropsch Diesel Fuel” value (bacterial inoculum [2]; FT Diesel + 1 Wt % biocide, Day 0) was “−”, the “Growth, Test Results on Fischer-Tropsch Diesel Fuel” value (bacterial inoculum [2]; FT Diesel + 1 Wt % biocide, Day 1) was “−” and the “Growth, Test Results on Fischer-Tropsch Diesel Fuel” value (bacterial inoculum [2]; FT Diesel + 1 Wt % biocide, Day 5) was “−”. For the same compound, the “Growth, Test Results on Fischer-Tropsch Diesel Fuel” value (bacterial inoculum [2]; FT Diesel + 1 Wt % biocide, Day 7) was “−”, the “Growth, Test Results on Fischer-Tropsch Diesel Fuel” value (bacterial inoculum [2]; FT Diesel + 1 Wt % biocide, Day 8) was “−” and the “Growth, Test Results on Fischer-Tropsch Diesel Fuel” value (bacterial inoculum [2]; FT Diesel + 1 Wt % biocide, Day 19) was “−”. The “Growth, Test Results on Fischer-Tropsch Diesel Fuel” value (bacterial inoculum [2]; FT Diesel + 100 ppm biocide, Day 0) was “−”, the “Growth, Test Results on Fischer-Tropsch Diesel Fuel” value (bacterial inoculum [2]; FT Diesel + 100 ppm biocide, Day 1) was “−” and the “Growth, Test Results on Fischer-Tropsch Diesel Fuel” value (bacterial inoculum [2]; FT Diesel + 100 ppm biocide, Day 5) was “−”. The “Growth, Test Results on Fischer-Tropsch Diesel Fuel” value (bacterial inoculum [2]; FT Diesel + 100 ppm biocide, Day 7) was “−”, the “Growth, Test Results on Fischer-Tropsch Diesel Fuel” value (bacterial inoculum [2]; FT Diesel + 100 ppm biocide, Day 8) was “−” and the “Growth, Test Results on Fischer-Tropsch Diesel Fuel” value (bacterial inoculum [2]; FT Diesel + 100 ppm biocide, Day 19) was “+”. For the same compound, the “effectiveness as biocide (inhibits microbial growth)” value (bacterial inoculum [2]; Fischer-Tropsch diesel fuel) was “effective at a lower concentration”, the “Growth, Test Results on ALAD Diesel Fuel” value (bacterial inoculum [2]; LA Diesel + 1 Wt % biocide, Day 0) was “−” and the “Growth, Test Results on ALAD Diesel Fuel” value (bacterial inoculum [2]; LA Diesel + 1 Wt % biocide, Day 1) was “−”. The “Growth, Test Results on ALAD Diesel Fuel” value (bacterial inoculum [2]; LA Diesel + 1 Wt % biocide, Day 5) was “−”, the “Growth, Test Results on ALAD Diesel Fuel” value (bacterial inoculum [2]; LA Diesel + 1 Wt % biocide, Day 7) was “−” and the “Growth, Test Results on ALAD Diesel Fuel” value (bacterial inoculum [2]; LA Diesel + 1 Wt % biocide, Day 8) was “−”. The “Growth, Test Results on ALAD Diesel Fuel” value (bacterial inoculum [2]; LA Diesel + 1 Wt % biocide, Day 19) was “−”, the “Growth, Test Results on ALAD Diesel Fuel” value (bacterial inoculum [2]; LA Diesel + 100 ppm biocide, Day 0) was “−” and the “Growth, Test Results on ALAD Diesel Fuel” value (bacterial inoculum [2]; LA Diesel + 100 ppm biocide, Day 1) was “−”. The “Growth, Test Results on ALAD Diesel Fuel” value (bacterial inoculum [2]; LA Diesel + 100 ppm biocide, Day 5) was “−”, the “Growth, Test Results on ALAD Diesel Fuel” value (bacterial inoculum [2]; LA Diesel + 100 ppm biocide, Day 7) was “−” and the “Growth, Test Results on ALAD Diesel Fuel” value (bacterial inoculum [2]; LA Diesel + 100 ppm biocide, Day 8) was “−”. The “Growth, Test Results on ALAD Diesel Fuel” value (bacterial inoculum [2]; LA Diesel + 100 ppm biocide, Day 19) was “−”, the LOEC [3] was 25 mg/L and the NOEC [3] was 13 mg/L. For the same compound, the LC50 at 96 h (in vivo; 96 h, control experiment, separate compounds) was 26 µg/mL (≈ 260 µM) and the LC50 at 96 h (in vivo; second experiment, as starting glutaraldehyde concentration, solutions mixed for 48 hours prior to bioassay) was 25 µg/mL (≈ 250 µM).
